Data published in ChEMBL document CHEMBL1201862, “PubChem BioAssay data set” (2004).
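Cells were grown in 96-well plates and exposed to each compound for 48 hours at five concentrations; endpoints were interpolated linearly between bracketing concentrations, or set to the highest concentration if not reached. GI50 marks 50% less growth.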 The source made the active and inactive calls. Rule as the data show it: active = GI50 up to about 1.1 µM and inactive = higher.

Assays:
Assay in all cases: inhibition of tumour cell growth, NCI panel, 48 h
SNB-75 = system: SNB-75
SF-268 = system: SF-268
CAKI-1 = system: CAKI-1
CCRF-CEM = system: CCRF-CEM
EKVX = system: EKVX
IGROV-1 = system: IGROV-1
HL-60 = system: HL-60
NCI-H23 = system: NCI-H23
KM12 = system: KM12
BT-549 = system: BT-549
NCI-H460 = system: NCI-H460
SK-MEL-5 = system: SK-MEL-5
OVCAR-4 = system: OVCAR-4
OVCAR-8 = system: OVCAR-8
PC-3 = system: PC-3
MCF7 = system: MCF7
SN12C = system: SN12C
SW-620 = system: SW-620
OVCAR-5 = system: OVCAR-5
NCI-H226 = system: NCI-H226
HOP-92 = system: HOP-92
RXF 393 = system: RXF 393
M14 = system: M14
NCI-H522 = system: NCI-H522
HT-29 = system: HT-29
NCI/ADR-RES = system: NCI/ADR-RES
LOX IMVI = system: LOX IMVI
MOLT-4 = system: MOLT-4
SK-MEL-2 = system: SK-MEL-2
TK-10 = system: TK-10
HOP-62 = system: HOP-62
SR = system: SR
A549 = system: A549
786-0 = system: 786-0
HCT-15 = system: HCT-15
K562 = system: K562
SK-MEL-28 = system: SK-MEL-28
Hs-578T = system: Hs-578T
Malme-3M = system: Malme-3M
SF-539 = system: SF-539
UACC-257 = system: UACC-257
ACHN = system: ACHN
OVCAR-3 = system: OVCAR-3
SF-295 = system: SF-295
MDA-N = system: MDA-N
SNB-19 = system: SNB-19
MDA-MB-231 = system: MDA-MB-231
COLO 205 = system: COLO 205
UO-31 = system: UO-31
MDA-MB-435 = system: MDA-MB-435
HCT-116 = system: HCT-116
U-251 = system: U-251
RPMI-8226 = system: RPMI-8226
HCC 2998 = system: HCC 2998
DU-145 = system: DU-145
A498 = system: A498
UACC-62 = system: UACC-62
T47D = system: T47D
SK-OV-3 = system: SK-OV-3

Measured: GI50

CC(=O)OCCC1c2ccccc2-n2nc(-c3ccccc3)c(O)c21 (stereo not drawn)
16.8 µM: HCT-15
inactive: SNB-75 20.8 µM | SF-268 34.7 µM | CAKI-1 18.7 µM | CCRF-CEM 11.6 µM | EKVX 15.9 µM | IGROV-1 > 10 µM | HL-60 11.1 µM | NCI-H23 16.6 µM | KM12 16.6 µM | BT-549 17.1 µM | NCI-H460 14.5 µM | SK-MEL-5 17 µM | OVCAR-4 14.3 µM | OVCAR-8 15.7 µM | PC-3 17.3 µM | MCF7 7.11 µM | SN12C 14.8 µM | SW-620 15.8 µM | OVCAR-5 19.3 µM | NCI-H226 26 µM | HOP-92 11.9 µM | RXF 393 12.3 µM | M14 15.3 µM | NCI-H522 16.6 µM | HT-29 21.2 µM | NCI/ADR-RES 14.8 µM | LOX IMVI 13.7 µM | MOLT-4 9.66 µM | SK-MEL-2 27.1 µM | TK-10 22.1 µM | HOP-62 15.2 µM | SR 11.4 µM | A549 17.7 µM | 786-0 18.6 µM | K562 10.8 µM | SK-MEL-28 16.2 µM | Hs-578T 19.5 µM | Malme-3M > 10 µM | SF-539 21.6 µM | UACC-257 16.8 µM | ACHN 19.1 µM | OVCAR-3 21.3 µM | SF-295 20 µM | MDA-N 17.5 µM | SNB-19 14.6 µM | MDA-MB-231 19.3 µM | COLO 205 20.1 µM | UO-31 16.7 µM | MDA-MB-435 16.9 µM | HCT-116 16.5 µM | U-251 13.3 µM | RPMI-8226 8.07 µM | HCC 2998 24.8 µM | DU-145 17.7 µM | A498 16.4 µM

COc1cc(C(c2ccccc2)N2C(=O)CC[C@H]2C(=O)O)cc(OC)c1OC (stereo partly drawn)
> 100 µM: HCT-15
inactive: SNB-75 > 100 µM | SF-268 > 100 µM | CAKI-1 > 100 µM | CCRF-CEM > 100 µM | EKVX > 100 µM | IGROV-1 > 100 µM | HL-60 > 100 µM | NCI-H23 > 100 µM | KM12 > 100 µM | BT-549 > 100 µM | NCI-H460 > 100 µM | SK-MEL-5 > 100 µM | OVCAR-4 > 100 µM | OVCAR-8 > 100 µM | PC-3 > 100 µM | MCF7 > 100 µM | SN12C > 100 µM | SW-620 > 100 µM | OVCAR-5 > 100 µM | NCI-H226 > 100 µM | HOP-92 > 100 µM | M14 > 100 µM | NCI-H522 > 100 µM | HT-29 > 100 µM | NCI/ADR-RES > 100 µM | LOX IMVI > 100 µM | MOLT-4 > 100 µM | SK-MEL-2 > 100 µM | TK-10 > 100 µM | HOP-62 > 100 µM | SR > 100 µM | A549 > 100 µM | 786-0 > 100 µM | K562 > 100 µM | UACC-62 > 100 µM | SK-MEL-28 > 100 µM | Hs-578T > 100 µM | Malme-3M > 100 µM | SF-539 > 100 µM | UACC-257 > 100 µM | ACHN > 100 µM | OVCAR-3 > 100 µM | SF-295 > 100 µM | T47D > 100 µM | MDA-N > 100 µM | SNB-19 > 100 µM | COLO 205 > 100 µM | UO-31 > 100 µM | MDA-MB-435 > 100 µM | HCT-116 > 100 µM | U-251 > 100 µM | SK-OV-3 > 100 µM | RPMI-8226 > 100 µM | HCC 2998 > 100 µM | DU-145 > 100 µM | A498 > 100 µM

O=C(/C=C/c1ccc(O)c(O)c1)OCCc1cccc2ccccc12
1.28 µM: HCT-15
active: CCRF-CEM 0.501 µM | NCI-H522 0.948 µM | SR 0.841 µM
inactive: SNB-75 2.52 µM | SF-268 4.76 µM | CAKI-1 8.36 µM | IGROV-1 2.76 µM | HL-60 1.38 µM | NCI-H23 3.72 µM | KM12 3.55 µM | BT-549 7.85 µM | NCI-H460 12.1 µM | SK-MEL-5 2.24 µM | OVCAR-4 10.7 µM | OVCAR-8 5.07 µM | PC-3 3.88 µM | MCF7 7.31 µM | SN12C 2.56 µM | SW-620 5.07 µM | OVCAR-5 14.4 µM | NCI-H226 22 µM | HOP-92 10.6 µM | RXF 393 9.44 µM | M14 5.65 µM | HT-29 13.4 µM | NCI/ADR-RES 6.15 µM | MOLT-4 1.61 µM | SK-MEL-2 3.44 µM | TK-10 3.4 µM | A549 4.54 µM | 786-0 3 µM | K562 2.77 µM | UACC-62 4.27 µM | SK-MEL-28 4.15 µM | Malme-3M 6.5 µM | SF-539 4.79 µM | UACC-257 11.1 µM | ACHN 3.78 µM | OVCAR-3 2.32 µM | SF-295 5.26 µM | T47D 12.6 µM | MDA-N 1.87 µM | SNB-19 10.6 µM | MDA-MB-231 2.33 µM | COLO 205 5.69 µM | UO-31 4.21 µM | MDA-MB-435 2.02 µM | HCT-116 3.24 µM | U-251 6.15 µM | RPMI-8226 2.3 µM | HCC 2998 11.1 µM | DU-145 5.48 µM | A498 11.5 µM

CC1=C(C(=O)OCCc2ccc([N+](=O)[O-])cc2)C(c2cccc([N+](=O)[O-])c2)C(C(=O)OC(C)C)=C(C)N1 (stereo not drawn)
5.47 µM: HCT-15
inactive: SNB-75 5.69 µM | SF-268 6.4 µM | CAKI-1 4.68 µM | CCRF-CEM 3.57 µM | EKVX 5.43 µM | IGROV-1 9.53 µM | HL-60 3.52 µM | NCI-H23 4.3 µM | KM12 6.05 µM | BT-549 2.94 µM | NCI-H460 3.72 µM | SK-MEL-5 2.62 µM | OVCAR-4 > 100 µM | OVCAR-8 4.88 µM | PC-3 2.26 µM | MCF7 3.72 µM | SN12C 11.8 µM | SW-620 6.68 µM | OVCAR-5 > 100 µM | NCI-H226 2.86 µM | RXF 393 2.91 µM | M14 3.7 µM | NCI-H522 1.87 µM | HT-29 4.94 µM | NCI/ADR-RES 3.33 µM | LOX IMVI 4.72 µM | MOLT-4 2.63 µM | SK-MEL-2 7.62 µM | TK-10 44.4 µM | HOP-62 5.55 µM | SR 3.49 µM | A549 4.99 µM | 786-0 6.49 µM | K562 3.52 µM | UACC-62 4.48 µM | SK-MEL-28 80 µM | Hs-578T 2.86 µM | Malme-3M 6.75 µM | SF-539 > 100 µM | UACC-257 5.89 µM | ACHN 4.82 µM | OVCAR-3 7.59 µM | SF-295 4.19 µM | T47D 2.94 µM | MDA-N 5.11 µM | SNB-19 12.7 µM | COLO 205 5.81 µM | UO-31 5.43 µM | MDA-MB-435 4.46 µM | HCT-116 3.69 µM | U-251 5.69 µM | SK-OV-3 > 100 µM | RPMI-8226 2.88 µM | HCC 2998 75.9 µM | DU-145 > 100 µM

CC1CCCOc2ccc(cc2)/C=N\c2ccc(cc2)CCc2ccc(cc2)/N=C\c2ccc(cc2)OCCC1
inactive: SNB-75 > 100 µM | SF-268 > 100 µM | CAKI-1 > 100 µM | CCRF-CEM > 100 µM | EKVX > 100 µM | IGROV-1 > 100 µM | NCI-H23 > 100 µM | KM12 > 100 µM | BT-549 > 100 µM | NCI-H460 > 100 µM | SK-MEL-5 > 100 µM | OVCAR-4 > 100 µM | OVCAR-8 > 100 µM | PC-3 > 100 µM | MCF7 > 100 µM | SN12C > 100 µM | SW-620 > 100 µM | OVCAR-5 > 100 µM | NCI-H226 > 100 µM | HOP-92 > 100 µM | M14 > 100 µM | NCI-H522 > 100 µM | HT-29 > 100 µM | NCI/ADR-RES > 100 µM | LOX IMVI > 100 µM | MOLT-4 > 100 µM | SK-MEL-2 > 100 µM | TK-10 > 100 µM | HOP-62 > 100 µM | SR > 100 µM | A549 > 100 µM | 786-0 > 100 µM | K562 > 100 µM | UACC-62 > 100 µM | SK-MEL-28 > 100 µM | Hs-578T > 100 µM | Malme-3M > 100 µM | SF-539 > 100 µM | UACC-257 > 100 µM | ACHN > 100 µM | OVCAR-3 > 100 µM | SF-295 > 100 µM | MDA-N > 100 µM | SNB-19 > 100 µM | MDA-MB-231 > 100 µM | COLO 205 > 100 µM | UO-31 > 100 µM | MDA-MB-435 > 100 µM | HCT-116 > 100 µM | U-251 > 100 µM | RPMI-8226 > 100 µM | HCC 2998 > 100 µM | DU-145 > 100 µM | A498 > 100 µM
> 100 µM: HCT-15
